Laboratory results taken from patent US11427561B2, “IRAK4 inhibiting agents” (BIOGEN MA INC., priority 2016, dated 2022).

Key:
A549 cells = assay: Cell-based assay: IL-6 ELISA quantification in A549 cells stimulated with human IL-1beta; conditions: 2 ng/ml human IL-1beta overnight
Procedure: Cell-based Assay: The cell-based assays is based on IL-6 ELISA quantification. Briefly, A549 cells are cultured in DMEM with 10% FBS medium. When cells reach 80% confluence they are trypsin treated and seeded 180 ul/well in 96-well plate at 2.5×10^4 cells/well. Then, 20 ul of compound serial dilutions (starting at 10 uM, 10 points) are added to the cell plate; incubate for 30 min at 37 C and stimulated with 2 ng/ml human IL-1beta 37 C, 5% CO2 overnight. The next day 100 ul of cell supernatant per well are analyzed on a Human IL-6 Quantikine ELISA kit from R&D Systems.
The compounds described herein were tested for in the above biochemical and cell-based assays.

IRAK4 = IRAK4 (Homo sapiens (Human), UniProt Q9NWZ3); assay: IRAK-4 biochemical assay, AlphaScreen format (phosphorylation of a biotin labeled peptide); conditions: 1 nM IRAK4, 1.6 μM peptide, 1 mM ATP, 3.5 h at RT
Sequence of IRAK4 (Q9NWZ3 whole entry, species assumed): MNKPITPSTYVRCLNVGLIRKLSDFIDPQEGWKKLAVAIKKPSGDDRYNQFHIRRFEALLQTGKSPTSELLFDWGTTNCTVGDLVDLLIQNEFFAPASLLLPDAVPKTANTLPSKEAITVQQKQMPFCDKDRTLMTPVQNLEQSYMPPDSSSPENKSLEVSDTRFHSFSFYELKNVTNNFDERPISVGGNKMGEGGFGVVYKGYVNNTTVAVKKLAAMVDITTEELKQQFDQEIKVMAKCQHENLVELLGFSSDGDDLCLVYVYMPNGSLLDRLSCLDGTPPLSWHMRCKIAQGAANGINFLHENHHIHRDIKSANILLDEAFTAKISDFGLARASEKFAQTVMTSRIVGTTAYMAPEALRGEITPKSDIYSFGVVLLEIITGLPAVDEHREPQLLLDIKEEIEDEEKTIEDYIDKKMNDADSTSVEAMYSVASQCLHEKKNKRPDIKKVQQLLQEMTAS
Procedure: Biochemical Assay: The biochemical assay is in a AlphaScreen format. The kinase reaction is based on the IRAK-4 phosphorylation of a biotin labeled peptide. The phosphopeptide is incubated with anti-phosphothreonine antibody as well as streptavidin- and protein A-coated beads. Binding of the protein-A coated beads to the antibody and the streptavidin beads to the peptide, leads to an energy transfer from one bead to the other, ultimately producing a luminescent/fluorescent signal.
Generally, the kinase reaction is carried out at 1 nM IRAK4, 1.6 μM peptide, 1 mM ATP in reaction buffer 50 mM Hepes, 60 mM NaCl, 5 mM MgCl2, 0.25 mM MnCl2, 2 mM DTT, 0.01% BSA, 0.01% Tween-20) for 3.5 h at RT.
The compounds described herein were tested for in the above biochemical assay.

SMILES | EC50 (A549 cells; Homo sapiens, A549, A549 cells) [nM] | IC50 (IRAK4) [nM] | EC50 (A549 cells; A549 cells) [nM]
N[C@H](c1cccc(-c2ccc3cnn(-c4cccc(CO)n4)c3c2)n1)C1(F)CCC1 [Compound 35c, (R)-(6-(6-(6-(amino(1-fluorocyclobutyl)methyl)pyridin-2-yl)-1H-indazol-1-yl)pyridin-2-yl) methanol] | 1000 to 10000 |  | 
CC1([C@H](N)c2cccc(-c3ccc4cnn(-c5cccc(CF)n5)c4c3)n2)CCC1 [Compound 35k, (S)-(6-(1-(6-(fluoromethyl)pyridin-2-yl)-1H-indazol-6-yl)pyridin-2-yl)(1-methylcyclobutyl)methanamine] | 1000 to 10000 |  | 
N[C@H](c1cccc(-c2ccc3cnn(-c4cccc(CO)n4)c3c2)n1)C1CC(F)(F)C1 [Compound 26, (S)-(6-(6-(6-(amino(3,3-difluorocyclobutyl)methyl)pyridin-2-yl)-1H-indazol-1-yl)pyridin-2-yl)methanol] | ≤ 1000 | ≤ 100 | 
COC1CC([C@H](N)c2cccc(-c3ccc4cnn(-c5cccc(C(F)F)n5)c4c3)n2)C1 (stereo partly drawn) [Compound 35h, (S)-(6-(1-(6-(difluoromethyl)pyridin-2-yl)-1H-indazol-6-yl)pyridin-2-yl)(3-methoxycyclobutyl)methanamine] | ≤ 1000 | ≤ 100 | 
N[C@H](c1cncc(-c2ccc3cnn(-c4cccc(CO)n4)c3c2)n1)[C@H]1C[C@@H](O)C1 [Compound 17, cis-3-((S)-amino(6-(1-(6-(hydroxymethyl)pyridin-2-yl)-1H-indazol-6-yl)pyrazin-2-yl)methyl)cyclobutanol] | ≤ 1000 | ≤ 100 | 
N[C@H](c1cccc(-c2ccc3cnn(-c4cccc(CO)n4)c3c2)n1)C1CC(CO)C1 (stereo partly drawn) [Compound 3, (S)-(6-(6-(6-(amino(3-(hydroxymethyl)cyclobutyl)methyl)pyridin-2-yl)-1H-indazol-1-yl)pyridin-2-yl)methanol] |  |  | ≤ 1000
N[C@H](c1cccc(-c2ccc3cnn(-c4cccc(CO)n4)c3c2)n1)C1(F)CCC1 [Compound 32, (R)-(6-(6-(6-(amino(1-fluorocyclobutyl)methyl)pyridin-2-yl)-1H-indazol-1-yl)pyridin-2-yl)methanol] |  | ≤ 100 | 
N[C@H](c1cccc(-c2ccc3cnn(-c4nccc(CO)n4)c3c2)n1)C1CC(F)(F)C1 [Compound 28, (S)-(2-(6-(6-(amino(3,3-difluorocyclobutyl)methyl)pyridin-2-yl)-1H-indazol-1-yl)pyrimidin-4-yl)methanol] | ≤ 1000 | ≤ 100 | 
NC(c1cccc(-c2ccc3cnn(-c4cccc(CO)n4)c3c2)n1)C1CCC(O)C1 (single isomer, unassigned) [Compound 23, 3-(amino(6-(1-(6-(hydroxymethyl)pyridin-2-yl)-1H-indazol-6-yl)pyridin-2-yl)methyl)cyclopentanol-C] |  | ≤ 100 | ≤ 1000
CCc1cccc(-n2ncc3ccc(-c4cccc([C@@H](N)C5CC(O)C5)n4)cc32)n1 (stereo partly drawn) [Compound 35b, 3-((S)-amino(6-(1-(6-ethylpyridin-2-yl)-1H-indazol-6-yl)pyridin-2-yl)methyl)cyclobutan-1-ol] | 1000 to 10000 | ≤ 100 | 
N[C@H](c1cccc(-c2ccc3cnn(-c4cccc(CO)n4)c3c2)n1)[C@H]1C[C@H](O)C1 [Compound 6, trans-3-((S)-amino(6-(1-(6-(hydroxymethyl)pyridin-2-yl)-1H-indazol-6-yl)pyridin-2-yl)methyl)cyclobutanol] | ≤ 1000 | ≤ 100 | 
N[C@H](c1cccc(-c2ccc3cnn(-c4nccc(C(F)(F)F)n4)c3c2)n1)[C@H]1C[C@@H](O)C1 [Compound 13, (1R,3s)-3-((S)-amino(6-(1-(4-(trifluoromethyl)pyrimidin-2-yl)-1H-indazol-6-yl)pyridin-2-yl)methyl)cyclobutanol] | ≤ 1000 | ≤ 100 | 
CO[C@H]1C[C@H]([C@H](N)c2cccc(-c3ccc4cnn(-c5cccc(C(F)F)n5)c4c3)n2)C1 [Compound 35j, (S)-(6-(1-(6-(difluoromethyl)pyridin-2-yl)-1H-indazol-6-yl)pyridin-2-yl)((1R,3S)-3-methoxycyclobutyl)methanamine] | ≤ 1000 |  | 
N[C@H](c1cccc(-c2ccc3cnn(-c4cccc(C(F)(F)F)n4)c3c2)n1)[C@H]1C[C@@H](O)C1 [Compound 10, (1R,3S)-3-((S)-amino(6-(1-(6-(trifluoromethyl)pyridin-2-yl)-1H-indazol-6-yl)pyridin-2-yl)methyl)cyclobutanol] | ≤ 1000 | ≤ 100 | 
N[C@H](c1cccc(-c2ccc3cnn(-c4cccc(CO)n4)c3c2)n1)[C@H]1C[C@@H](O)C1 [Compound 4, cis-3-((S)-amino(6-(1-(6-(hydroxymethyl)pyridin-2-yl)-1H-indazol-6-yl)pyridin-2-yl)methyl)cyclobutanol] | ≤ 1000 | ≤ 100 | 
N[C@H](c1cccc(-c2ccc3cnn(-c4cccc(C(F)F)n4)c3c2)n1)C1CC(O)C1 (stereo partly drawn) [Compound 35a, 3-((S)-amino(6-(1-(6-(difluoromethyl)pyridin-2-yl)-1H-indazol-6-yl)pyridin-2-yl)methyl)cyclobutan-1-ol] | ≤ 1000 | ≤ 100 | 
NC(c1cccc(-c2ccc3cnn(-c4cccc(CO)n4)c3c2)n1)C1CCC(O)C1 (single isomer, unassigned) [Compound 21, 3-(amino(6-(1-(6-(hydroxymethyl)pyridin-2-yl)-1H-indazol-6-yl)pyridin-2-yl)methyl)cyclopentanol-A] | ≤ 1000 | ≤ 100 | 
N[C@@H](c1cccc(-c2ccc3cnn(-c4cccc(CO)n4)c3c2)n1)C1(F)CCC1 [Compound 31, (S)-(6-(6-(6-(amino(1-fluorocyclobutyl)methyl)pyridin-2-yl)-1H-indazol-1-yl)pyridin-2-yl)methanol] |  | ≤ 100 | 
CC(O)c1ccnc(-n2ncc3ccc(-c4cccc([C@@H](N)[C@H]5C[C@@H](O)C5)n4)cc32)n1 (stereo partly drawn) [Compound 25, (1R,3s)-3-((1S)-amino(6-(1-(4-(1-hydroxyethyl)pyrimidin-2-yl)-1H-indazol-6-yl)pyridin-2-yl)methyl)cyclobutanol] | 1000 to 10000 | ≤ 100 | 
NC(c1cccc(-c2ccc3cnn(-c4cccc(CO)n4)c3c2)n1)C1CCC(O)C1 (single isomer, unassigned) [Compound 22, 3-(amino(6-(1-(6-(hydroxymethyl)pyridin-2-yl)-1H-indazol-6-yl)pyridin-2-yl)methyl)cyclopentanol-B] |  | ≤ 100 | 1000 to 10000
N[C@@H](c1cccc(-c2ccc3cnn(-c4cccc(CO)n4)c3c2)n1)C1CC(F)(F)C1 [Compound 27, (R)-(6-(6-(6-(amino(3,3-difluorocyclobutyl)methyl)pyridin-2-yl)-1H-indazol-1-yl)pyridin-2-yl)methanol] | ≤ 1000 | ≤ 100 | 
N[C@H](c1cncc(-c2ccc3cnn(-c4cccc(CF)n4)c3c2)n1)[C@H]1C[C@@H](O)C1 [Compound 18, cis-3-((S)-amino(6-(1-(6-(fluoromethyl)pyridin-2-yl)-1H-indazol-6-yl)pyrazin-2-yl)methyl)cyclobutanol] |  | 100 to 1000 | 
N[C@H](c1cccc(-c2ccc3cnn(-c4cncc(CO)n4)c3c2)n1)[C@H]1C[C@@H](O)C1 [Compound 9, cis 3-((S)-amino(6-(1-(6-(hydroxymethyl)pyrazin-2-yl)-1H-indazol-6-yl)pyridin-2-yl)methyl)cyclobutanol] | ≤ 1000 | ≤ 100 | 
N[C@H](c1cccc(-c2ccc3cnn(-c4cccc(C(F)F)n4)c3c2)n1)[C@H]1C[C@@H](O)C1 [Compound 14, cis-3-((S)-amino(6-(1-(6-(difluoromethyl)pyridin-2-yl)-1H-indazol-6-yl)pyridin-2-yl)methyl)cyclobutanol] | ≤ 1000 | ≤ 100 | 
N[C@H](c1cncc(-c2ccc3cnn(-c4cccc(C(F)(F)F)n4)c3c2)n1)[C@H]1C[C@@H](O)C1 [Compound 19, cis-3-((S)-amino(6-(1-(6-(trifluoromethyl)pyridin-2-yl)-1H-indazol-6-yl)pyrazin-2-yl)methyl)cyclobutanol] |  | ≤ 100 | 
N#CC1CC([C@H](N)c2cccc(-c3ccc4cnn(-c5cccc(CF)n5)c4c3)n2)C1 (stereo partly drawn) [Compound 35l, (S)-3-(amino(6-(1-(6-(fluoromethyl)pyridin-2-yl)-1H-indazol-6-yl)pyridin-2-yl)methyl)cyclo butane-1-carbonitrile] | ≤ 1000 |  | 
N[C@@H](c1cccc(-c2ccc3cnn(-c4cccc(CO)n4)c3c2)n1)C1(F)CCC1 [Compound 35d, (S)-(6-(6-(6-(amino(1-fluorocyclobutyl)methyl)pyridin-2-yl)-1H-indazol-1-yl)pyridin-2-yl) methanol] | ≤ 1000 |  | 
N#CC1(c2cccc(-n3ncc4ccc(-c5cccc([C@@H](N)[C@H]6C[C@@H](O)C6)n5)cc43)n2)CC1 [Compound 20, 1-(6-(6-(6-((S)-amino(cis-3-hydroxycyclobutyl)methyl)pyridin-2-yl)-1H-indazol-1-yl)pyridin-2-yl)cyclopropanecarbonitrile] |  | ≤ 100 | 
